# Where two headings read alike, the source gives them in different places.
# Legend:
# Tet(X4) = Tet(X4) (Escherichia coli, UniProt A0A3T0V9Y5); test: FP competitive displacement of probe 6; assay type: binding; conditions: 25 nM 6, 40 nM Tet(X4), 5 mM MgCl2, 1 μM FAD, 100 mM Tris pH 7.0, 0.01% Triton X-100
# Experimental: A 2× solution containing 80 nM Tet(X4), 2 μM FAD and 10 mM MgCl2 in the assay buffer was dispensed into the first 22 columns of a 384-well black, non-binding microtiter plate (Greiner Bio-One), 12.5 μL per well, using a microplate reagent dispenser. A solution of 2 μM FAD and 10 mM MgCl2 in the assay buffer was dispensed into the remaining columns to serve as a no enzyme control. A 3-fold, 10-point dilution series of substrates and inhibitors was made in DMSO in a V-bottom 96-well plate (Greiner Bio-One) with a highest concentration of 5 mM or 0.5 mM. Into one column was added DMSO with no inhibitor or substrate, to serve as a positive control. Tigecycline was included as a reference on every plate to ensure reproducibility. 0.5 μL of each dilution was transferred in quadruplicate to the 384-well plate containing enzyme solution using a CyBi-Well liquid-handling robot (CyBio). A solution of 50 nM 6 in the assay buffer was then dispensed, with 12.5 μL per well. The plate was briefly centrifuged (1000 rpm), then incubated at ambient temperature for 30 min prior to measuring the FP. Data points were normalised between the positive and negative controls. Normalised % response was plotted as a function of log10([Inhibitor]), and the IC50^app was determined by fitting the data to the equation: Y = Bottom + (top-bottom)/(1 + 10^Log(IC50) − X) × HillSlope in GraphPad Prism 9.4.1, where Y = % response and X = log10([Inhibitor]). Wells with unusual fluorescence intensities were manually identified and removed from the analysis. […]
# [1] = system: Escherichia coli T-24a – tet(X4); test: microbe, parasite or virus in culture; assay type: cell-based
# Experimental: (§1) MIC tests and checkerboard assays were performed in U-bottom, 96-well microtiter plates using a modified broth microdilution protocol following CLSI guidelines. Cation-adjusted Mueller-Hinton Broth (CAMHB) was prepared fresh on the day of testing.[74] […] Bacterial colonies were selected from an overnight culture on MHA plates (supplemented with 0.2%w/vL-arabinose for E. coli TOP10 containing pBAD-TOPO-Tet(X4)) and were suspended in 0.9% saline solution to achieve a 0.5 McFarland standard. A 100 μL aliquot of this suspension was then diluted into 9.9 mL of CAMHB to yield approximately 1.5 × 10^6 cfu mL^−1. 50 μL of the suspension was then added to each well of a microtiter plates. Plates were incubated at 37 °C for 18 h. At least 2 replicates were conducted for each combination. E. coli TOP10 + pBAD-TOPO-Tet(X4) cells were grown in the absence and presence of 0.2%w/vL-arabinose. Analysis of the MIC and checkerboard results were carried out by visual inspection of growth, with and without resazurin dye, an oxidation–reduction indicator.[75] As a measure of synergy, fractional inhibitory concentration index (FICI) was calculated as FICA + FICB, where FICA and FICB are the MICcombination/MICalone for each agent, respectively.[76] Results were interpreted as follows: synergistic (<0.5), indifferent (1.0–4.0) or antagonistic (>4.0).[64] In cases where the MIC exceeded or was below the measured range, the borderline value was taken to calculate the FIC index.
# [2] = system: Proteus penneri NT6-2 – tet(X6); test: microbe, parasite or virus in culture; assay type: cell-based
# Experimental: as §1
# [3] = system: Acinetobacter baumannii NT5-1 – tet(X5); test: microbe, parasite or virus in culture; assay type: cell-based
# Experimental: as §1
# [4] = system: Salmonella enterica T-2a – tet(X4); test: microbe, parasite or virus in culture; assay type: cell-based
# Experimental: (§2) MIC tests and checkerboard assays were performed in U-bottom, 96-well microtiter plates using a modified broth microdilution protocol following CLSI guidelines. Cation-adjusted Mueller-Hinton Broth (CAMHB) was prepared fresh on the day of testing.[74] In brief, assays were set up in a total volume of 100 μL per well and titrations comprised seven 2-fold dilutions of inhibitors and ten 2-fold dilutions of tigecycline in CAMHB. Bacterial colonies were selected from an overnight culture on MHA plates (supplemented with 0.2%w/vL-arabinose for E. coli TOP10 containing pBAD-TOPO-Tet(X4)) and were suspended in 0.9% saline solution to achieve a 0.5 McFarland standard. A 100 μL aliquot of this suspension was then diluted into 9.9 mL of CAMHB to yield approximately 1.5 × 10^6 cfu mL^−1. 50 μL of the suspension was then added to each well of a microtiter plates. Plates were incubated at 37 °C for 18 h. At least 2 replicates were conducted for each combination. E. coli TOP10 + pBAD-TOPO-Tet(X4) cells were grown in the absence and presence of 0.2%w/vL-arabinose. Analysis of the MIC and checkerboard results were carried out by visual inspection of growth, with and without resazurin dye, an oxidation–reduction indicator.[75] As a measure of synergy, fractional inhibitory concentration index (FICI) was calculated as FICA + FICB, where FICA and FICB are the MICcombination/MICalone for each agent, respectively.[76] Results were interpreted as follows: synergistic (<0.5), indifferent (1.0–4.0) or antagonistic (>4.0).[64] In cases where the MIC exceeded or was below the measured range, the borderline value was taken to calculate the FIC index.
# [5] = system: Acinetobacter spp. NT3-1 – tet(X3); test: microbe, parasite or virus in culture; assay type: cell-based
# Experimental: as §2
# [6] = system: E. coli TOP10 containing plasmid pBAD-TOPO-Tet(X4); test: Broth microdilution MIC and checkerboard assay; assay type: cell-based, Escherichia coli; conditions: alone; without L-arabinose induction
# Excerpt: Tet(X4) was sub-cloned from the Tet(X4) pET28b-(+) expression vector via TOPO cloning. The insert was amplified using the taq polymerase with the forward primer 5′- […]-3′ and the reverse primer 5′- […]-3’. Following PCR purification (Thermo Fisher Scientific), the A-tailed PCR product was ligated into the pBAD-TOPO vector using a TOPO cloning kit (Invitrogen) according to the manufacturer's protocol. Following amplification in E. coli NEB5α cells (NEBiolabs), the fidelity of the insert was confirmed by Sanger sequencing (Eurofins). For microbiological experiments, E. coli TOP10 cells were used as the recipient strain. Cells were plated on Mueller-Hinton agar (MHA) plates containing ampicillin at 100 μg mL^−1. The introduction of pBAD-TOPO-Tet(X4) was confirmed by colony PCR. Strains were stored in a freezer at −80 °C in cryopreservation beads.
# as §1
# [7] = IC50app, Tet(X4) (Polarization)
# [8] = tigecycline in combination with the inhibitor, lowest FICI
# [9] = inhibitor in combination with tigecycline, lowest FICI
smiles,measurement,setting,value
CCC1(c2cnc[nH]2)Cc2ccccc2C1 [Atipamezole],IC50,Tet(X4); [7],> 100000 nM
Nc1nc2c(c(=O)[nH]1)N(C=O)C(CNc1ccc(C(=O)N[C@@H](CCC(=O)O)C(=O)O)cc1)CN2 (stereo partly shown) [Calcium folinate],IC50,Tet(X4); [7],> 100000 nM
CN(C)[C@@H]1C(O)=C(C(N)=O)C(=O)[C@@]2(O)C(O)=C3C(=O)c4c(O)ccc(Cl)c4[C@@](C)(O)[C@H]3C[C@@H]12 [Chlortetracycline],IC50,"Tet(X4); IC50app, FP assay",39 ± 9.6 nM
C[C@@H](Oc1cc(-c2cnn(C3CCNCC3)c2)cnc1N)c1c(Cl)ccc(F)c1Cl [Crizotinib],IC50,Tet(X4); [7],> 100000 nM
NCCS [Cysteamine],IC50,"Tet(X4); read-out: IC50app, Tet(X4) (Polarization)",> 100000 nM
CN(C)[C@@H]1C(O)=C(C(N)=O)C(=O)[C@@]2(O)C(O)=C3C(=O)c4c(O)ccc(Cl)c4[C@@H](O)[C@H]3C[C@@H]12 [Demeclocycline],IC50,"Tet(X4); IC50app, FP assay",29 ± 4.6 nM
N=C(N)c1ccc(/N=N/Nc2ccc(C(=N)N)cc2)cc1 [Diminazene],IC50,Tet(X4); [7],> 100000 nM
CCN(CC)C(=S)SSC(=S)N(CC)CC [Disulfiram],IC50,Tet(X4); [7],> 100000 nM
NCCc1ccc(O)c(O)c1 [Dopamine],IC50,Tet(X4); [7],> 100000 nM
C[C@]12CCC(=O)C=C1[C@@H]1C[C@@H]1[C@H]1[C@@H]3[C@@H]4C[C@@H]4[C@@]4(CCC(=O)O4)[C@@]3(C)CC[C@@H]12 [Drosperinone],Tet(X) inhibitor MIC,"[1]; alone, E. coli T-24a",256 µg/mL
same,Combination (Antibiotic/Inhibitor) MICs: antibiotic,[1]; [8],8 µg/mL
same,FICI,[1]; with tigecycline,1
same,Outcome,[1]; with tigecycline,indifferent (indifferent (0.5-4.0))
same,Tet(X) inhibitor MIC,"[2]; alone, P. penneri NT6-2",> 128 µg/mL
same,Combination (Antibiotic/Inhibitor) MICs: inhibitor,[2]; [9],128 µg/mL
same,Combination (Antibiotic/Inhibitor) MICs: antibiotic,[2]; [8],8 µg/mL
same,FICI,[2]; with tigecycline,2
same,Outcome,[2]; with tigecycline,indifferent (indifferent (0.5-4.0))
same,Tet(X) inhibitor MIC,"[3]; alone, A. baumannii NT5-1",> 128 µg/mL
same,Combination (Antibiotic/Inhibitor) MICs: inhibitor,[3]; [9],128 µg/mL
same,Combination (Antibiotic/Inhibitor) MICs: antibiotic,[3]; [8],4 µg/mL
same,FICI,[3]; with tigecycline,1.5
same,Outcome,[3]; with tigecycline,indifferent (indifferent (0.5-4.0))
same,Combination (Antibiotic/Inhibitor) MICs: antibiotic,[4]; [8],16 µg/mL
same,FICI,[4]; with tigecycline,1.5
same,Outcome,[4]; with tigecycline,indifferent (indifferent (0.5-4.0))
same,Tet(X) inhibitor MIC,"[5]; alone, Acinetobacter spp. NT3-1",128 µg/mL
same,Combination (Antibiotic/Inhibitor) MICs: inhibitor,[5]; [9],128 µg/mL
same,Combination (Antibiotic/Inhibitor) MICs: antibiotic,[5]; [8],4 µg/mL
same,FICI,[5]; with tigecycline,2
same,Outcome,[5]; with tigecycline,indifferent (indifferent (0.5-4.0))
CN(C)[C@@H]1C(O)=C(C(N)=O)C(=O)[C@@]2(O)C(O)=C3C(=O)c4c(O)c(NC(=O)CN5CCCC5)cc(F)c4C[C@H]3C[C@@H]12 [Eravacycline],IC50,"Tet(X4); IC50app, FP assay",13.7 ± 1.6 nM
COc1ccnc(C[S+]([O-])c2nc3cc(-n4cccc4)ccc3[nH]2)c1C (stereo not shown) [Ilaprazole],IC50,Tet(X4); [7],> 100000 nM
C=C1c2cccc(O)c2C(=O)C2=C(O)[C@]3(O)C(=O)C(C(N)=O)=C(O)[C@@H](N(C)C)[C@@H]3[C@@H](O)[C@H]12 [Methacycline],IC50,"Tet(X4); IC50app, FP assay",311 ± 36 nM
CN(C)c1ccc(O)c2c1C[C@H]1C[C@H]3[C@H](N(C)C)C(O)=C(C(N)=O)C(=O)[C@@]3(O)C(O)=C1C2=O [Minocycline],IC50,"Tet(X4); IC50app, FP assay",51.5 ± 3.6 nM
NC(=O)c1ncn([C@@H]2O[C@H](CO)[C@@H](O)[C@H]2O)c1O [Mizoribine],IC50,Tet(X4); [7],> 100000 nM
CN(C)c1cc(CNCC(C)(C)C)c(O)c2c1C[C@H]1C[C@H]3[C@H](N(C)C)C(O)=C(C(N)=O)C(=O)[C@@]3(O)C(O)=C1C2=O [Omadacycline],IC50,"Tet(X4); IC50app, FP assay",24.3 ± 4 nM
CN(C)[C@@H]1C(O)=C(C(N)=O)C(=O)[C@@]2(O)C(O)=C3C(=O)c4c(O)cccc4[C@@](C)(O)[C@H]3[C@H](O)[C@@H]12 [Oxytetracycline],IC50,"Tet(X4); IC50app, FP assay",4430 ± 260 nM
Nc1ccc2cc3ccc(N)cc3nc2c1 [Proflavine],IC50,Tet(X4); [7],> 100000 nM
CN(C)[C@@H]1C(O)=C(C(N)=O)C(=O)[C@@]2(O)C(O)=C3C(=O)c4c(O)cccc4C[C@H]3C[C@@H]12 [Sancycline],IC50,"Tet(X4); IC50app, FP assay",47 ± 7.1 nM
CON(C)Cc1ccc(O)c2c1C[C@H]1C[C@H]3[C@H](N(C)C)C(O)=C(C(N)=O)C(=O)[C@@]3(O)C(O)=C1C2=O [Sarecycline],IC50,"Tet(X4); IC50app, FP assay",31.5 ± 10 nM
CN(C)[C@@H]1C(O)=C(C(N)=O)C(=O)[C@@]2(O)C(O)=C3C(=O)c4c(O)cccc4[C@@](C)(O)[C@H]3C[C@@H]12 [Tetracycline],IC50,"Tet(X4); IC50app, FP assay",69.6 ± 8.8 nM
same,Antibiotic MIC,[6],4 µg/mL
